The record followed here is paper PMC6733504, “Effects of flavoring compounds used in electronic cigarette refill liquids on endothelial and vascular function” (PLoS ONE, 2019).

The target in test [1] is T1, soluble guanylate cyclase (sGC) (Bos taurus, UniProt P16068+P19687).
T1 construct: The activity of sGC purified from bovine lung; from tissue; host or cells: bovine lung
T1 sequence (P19687 1-691): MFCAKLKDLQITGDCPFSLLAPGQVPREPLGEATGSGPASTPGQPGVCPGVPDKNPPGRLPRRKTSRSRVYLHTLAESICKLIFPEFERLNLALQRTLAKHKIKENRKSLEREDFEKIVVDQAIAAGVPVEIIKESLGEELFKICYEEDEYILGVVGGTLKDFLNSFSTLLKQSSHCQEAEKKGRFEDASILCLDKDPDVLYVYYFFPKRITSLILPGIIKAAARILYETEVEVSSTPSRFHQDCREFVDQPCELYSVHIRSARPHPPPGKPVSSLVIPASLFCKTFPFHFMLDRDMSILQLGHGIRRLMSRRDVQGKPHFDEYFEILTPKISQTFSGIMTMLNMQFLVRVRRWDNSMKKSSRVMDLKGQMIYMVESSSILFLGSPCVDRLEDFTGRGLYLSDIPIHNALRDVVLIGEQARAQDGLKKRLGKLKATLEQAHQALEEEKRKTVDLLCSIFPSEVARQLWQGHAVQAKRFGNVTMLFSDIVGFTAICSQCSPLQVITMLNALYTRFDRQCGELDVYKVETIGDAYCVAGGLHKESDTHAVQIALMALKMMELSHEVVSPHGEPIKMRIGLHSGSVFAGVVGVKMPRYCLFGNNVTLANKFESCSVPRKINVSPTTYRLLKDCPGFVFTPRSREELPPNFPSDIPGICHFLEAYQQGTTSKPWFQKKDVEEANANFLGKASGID
T1 sequence (P16068 1-619): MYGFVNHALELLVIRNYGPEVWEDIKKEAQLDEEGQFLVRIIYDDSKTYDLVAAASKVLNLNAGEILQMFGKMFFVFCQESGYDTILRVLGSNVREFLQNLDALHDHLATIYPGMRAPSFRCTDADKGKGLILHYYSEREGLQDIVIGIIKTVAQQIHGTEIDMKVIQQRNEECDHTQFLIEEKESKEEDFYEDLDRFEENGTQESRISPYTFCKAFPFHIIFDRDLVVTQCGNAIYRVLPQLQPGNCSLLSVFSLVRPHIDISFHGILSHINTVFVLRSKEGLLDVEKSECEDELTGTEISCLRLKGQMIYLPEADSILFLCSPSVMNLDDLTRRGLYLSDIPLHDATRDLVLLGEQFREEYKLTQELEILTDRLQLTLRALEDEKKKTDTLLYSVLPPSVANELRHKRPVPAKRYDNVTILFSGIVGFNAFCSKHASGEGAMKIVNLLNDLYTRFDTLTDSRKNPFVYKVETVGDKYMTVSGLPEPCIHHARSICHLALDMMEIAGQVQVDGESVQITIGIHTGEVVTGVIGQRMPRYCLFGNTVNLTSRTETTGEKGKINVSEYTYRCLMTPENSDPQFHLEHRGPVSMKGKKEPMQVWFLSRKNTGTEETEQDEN
Put plainly: Activity of purified sGC stimulated with DEA/NO. In kind it is biochemical, bovine. The settings on record: for Emax of DEA/NO-stimulated sGC activity in presence of flavoring: flavoring 1 mM, DEA/NO 0.01–10 μM. Here is the method: The activity of sGC purified from bovine lung was determined as formation of [^32P]cGMP from [α-^32P]GTP. The purified enzyme (50 ng) was incubated at 37°C for 10 min in a final volume of 0.1 ml in the absence or presence of flavorings with the NO donor DEA/NO at concentrations indicated in the figure legends, followed by isolation of [^32P]cGMP and quantification of radioactivity (Cerenkov radiation) in a β counter.
To test for reversibility of inhibition, sGC (50 ng) was preincubated in the absence or presence of the respective compounds for 5 minutes at 37°C, followed by 50-fold dilution in the assay mixtures and incubation with DEA/NO at 37°C for 10 minutes.

In another test the target is T2, NO synthase (NOS) (Sus scrofa, UniProt Q28969).
T2 construct: endogenous in cells; host or cells: primary porcine aortic endothelial cells (up to 3 passages)
T2 sequence (Q28969 1-1205): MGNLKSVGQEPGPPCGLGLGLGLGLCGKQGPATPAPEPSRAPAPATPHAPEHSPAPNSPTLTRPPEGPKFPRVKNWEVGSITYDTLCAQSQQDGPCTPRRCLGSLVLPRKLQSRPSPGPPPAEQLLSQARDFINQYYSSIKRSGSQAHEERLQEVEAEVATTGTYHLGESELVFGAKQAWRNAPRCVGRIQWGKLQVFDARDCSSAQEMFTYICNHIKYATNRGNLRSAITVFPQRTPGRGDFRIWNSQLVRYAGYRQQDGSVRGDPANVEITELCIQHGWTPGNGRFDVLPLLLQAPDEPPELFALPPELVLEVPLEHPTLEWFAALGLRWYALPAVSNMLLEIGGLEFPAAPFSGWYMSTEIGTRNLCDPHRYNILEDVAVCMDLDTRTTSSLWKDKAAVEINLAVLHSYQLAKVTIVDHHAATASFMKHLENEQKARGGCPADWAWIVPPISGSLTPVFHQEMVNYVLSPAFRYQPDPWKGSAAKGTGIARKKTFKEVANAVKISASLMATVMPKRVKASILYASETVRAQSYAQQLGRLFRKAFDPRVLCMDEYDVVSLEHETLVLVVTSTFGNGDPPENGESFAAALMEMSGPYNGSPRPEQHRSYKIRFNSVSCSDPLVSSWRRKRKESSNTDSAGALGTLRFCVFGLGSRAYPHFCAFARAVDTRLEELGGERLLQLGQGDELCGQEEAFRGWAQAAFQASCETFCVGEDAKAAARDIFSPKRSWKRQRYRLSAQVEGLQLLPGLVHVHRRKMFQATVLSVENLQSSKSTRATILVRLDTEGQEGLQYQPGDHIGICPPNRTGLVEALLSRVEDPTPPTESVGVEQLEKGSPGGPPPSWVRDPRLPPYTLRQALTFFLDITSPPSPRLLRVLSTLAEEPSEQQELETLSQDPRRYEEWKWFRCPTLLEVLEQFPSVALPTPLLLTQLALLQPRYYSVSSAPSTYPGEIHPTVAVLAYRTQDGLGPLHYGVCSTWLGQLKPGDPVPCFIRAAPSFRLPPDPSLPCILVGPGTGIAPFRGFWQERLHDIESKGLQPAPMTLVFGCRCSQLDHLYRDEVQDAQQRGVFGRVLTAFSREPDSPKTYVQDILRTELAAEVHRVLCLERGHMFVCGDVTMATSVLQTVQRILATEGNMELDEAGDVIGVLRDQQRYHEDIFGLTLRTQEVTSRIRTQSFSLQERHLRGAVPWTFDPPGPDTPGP
The experiment in a line: Endothelial L-citrulline formation (NOS activity in intact cells). Format: cell-based, porcine. The note with it: for Direct effect on NOS-catalyzed L-citrulline formation: 1 mM, absence of A23187 (S1 Fig). Here is the method:
NO synthase (NOS) activity in intact cells was determined by monitoring the conversion of L-[^3H]arginine into L-[^3H]citrulline as previously described. […] Subsequent to lysis of the cells with 0.01 M HCl, an aliquot was removed for determination of incorporated radioactivity. To the remaining sample, 200 mM sodium acetate buffer ([…]) containing 10 mM L-citrulline was added (final pH ~5.0), and L-[^3H]citrulline was separated from L-[^3H]arginine by cation exchange chromatography.

For the molecule `O=C/C=C/c1ccccc1` [Cinnamaldehyde, (2E)-3-Phenylprop-2-enal], in test [1] (DEA/NO 0.05 μM, 95% CI), the IC50 (usually the point on the concentration scale where inhibition reaches its midpoint) is 560 µM. Also, the “Reversal of sGC inhibition by 50-fold dilution” value in test [1] (enzyme pre-incubated 5 minutes with 1 mM) is reported as “largely”. Moreover, in test [1], the “Emax of DEA/NO-stimulated sGC activity in presence of flavoring” value is recorded as 24±0.8 µmol cGMP x min-1 x mg-1. On NO synthase (NOS), the “Concentration inhibiting Ca2+-stimulated NO synthase activation” value is on record as ≥ 0.3 mM and the “Direct effect on NOS-catalyzed L-citrulline formation” value is “neither eugenol nor cinnamaldehyde increased”. Besides, the “Effect on A23187-stimulated L-citrulline formation (endothelial NOS activity)” value on NO synthase (NOS) (0.3 and 1.0 mM (Fig 2A)) was “significantly inhibited”.

Take `C=CCc1ccc(O)c(OC)c1` [Eugenol, 2-Methoxy-4-(prop-2-en-1-yl)phenol]: the “Emax of DEA/NO-stimulated sGC activity in presence of flavoring” value in test [1] is given as 28±1.1 µmol cGMP x min-1 x mg-1. Further, the “Direct effect on NOS-catalyzed L-citrulline formation” value on NO synthase (NOS) was “neither eugenol nor cinnamaldehyde increased”.
